The values below come from US20220322673A1, “Novel Agrochemical Combinations” (UPL LIMITED, priority 2019, published 2022).

Where two headings read alike, the source gives them in different places.

What all share (format): in vivo
Test [1] has as its system Corn FAW (Spodoptera frugiperda). The conditions noted are these: for Percent control (%) A01: A01 = 1 day after first spray; for Percent control (%) A14: A14 = 14 days after 1st spray; for Percent control (%) B03: B03 = 3 days after 2nd spray; for Percent control (%) B07: B07 (after 2nd spray); for Percent control (%) B10: B10 (after 2nd spray); for Percent control (%) B21: B21 (after 2nd spray). The source says: Application method: Two applications (application A and B) within an interval of 14 days. A01=1 day after first spray, A14=14 days after 1st spray, B03=3 days after 2nd spray.

Test [2] relates to Okra Aphids (Aphis gossypii). The conditions noted are these: for Percent control (%) of Okra Aphids, Nymphs + Adults, A01: A01 = 1 day after first spray; for Percent control (%) of Okra Aphids, Nymphs + Adults, B03: B03 = 3 days after 2nd spray; for Percent control (%) of Okra Aphids, Nymphs + Adults, B07: B07 (after 2nd spray); for Percent control (%) of Okra Aphids, Nymphs + Adults, B10: B10 (after 2nd spray); for Percent control (%) of Okra Aphids, Nymphs + Adults, C03: C03 = 3 days after third spray; for Percent control (%) of Okra Aphids, Nymphs + Adults, C10: C10 (after third spray). From the text: (§1) In this evaluation, feeding damage & insect population on Okra Leaves before and after sprays is averaged and analyzed for the test of significance. Application method: Three applications (application A, B and C) within an interval of 14 days.

The test system of test [3] is Okra Jassids (Amrasca bigutulla bigutulla). The settings on record: for Percent control (%) of Okra Jassids, Nymphs + Adults, A01: A01 = 1 day after first spray; for Percent control (%) of Okra Jassids, Nymphs + Adults, A10: A10 (after 1st spray); for Percent control (%) of Okra Jassids, Nymphs + Adults, B03: B03 = 3 days after 2nd spray; for Percent control (%) of Okra Jassids, Nymphs + Adults, B07: B07 (after 2nd spray); for Percent control (%) of Okra Jassids, Nymphs + Adults, B10: B10 (after 2nd spray); for Percent control (%) of Okra Jassids, Nymphs + Adults, B14: B14 (after 2nd spray); for Percent control (%) of Okra Jassids, Nymphs + Adults, C03: C03 = 3 days after third spray; for Percent control (%) of Okra Jassids, Nymphs + Adults, C10: C10 (after third spray).
From the text: as §1

[4] abbreviates: 25% reduced dose of insecticide, gm a.i./ha: OSA 25, CTPR 22.5, Acephate 730, Novaluron 56, Novaluron+Lambda cyhalothrin 67.5, Novaluron+Emamectin 93.5.
[5] abbreviates: doses gm a.i./ha: OSA 25, CTPR 30, Acephate 970, Novaluron 75, Novaluron+Lambda cyhalothrin 90, Novaluron+Emamectin 125.
Setting [6] is: doses gm a.i./ha: OSA 25, Flonicamid 100, Acephate+Imidacloprid 520, Flonicamid+Fipronil 100+50, Imidacloprid 24.5, Acetamiprid 15.
The mark [7] stands for this setting: reduced insecticide dose, gm a.i./ha: OSA 25, Flonicamid (Ulala) 75, Acephate+Imidacloprid 390, Flonicamid+Fipronil 75+37.5, Imidacloprid 18.3, Acetamiprid 11.2.
Where [8] appears, read: 25% reduced dose rate, gm a.i./ha: OSA 25, Flonicamid 75, Acephate+Imidacloprid 390, Flonicamid+Fipronil 75+37.5, Imidacloprid 18.3, Acetamiprid 11.2.

For the compound `O=C(NC(=O)c1c(F)cccc1F)Nc1ccc(OC(F)(F)C(F)OC(F)(F)F)c(Cl)c1` (racemic) [Novaluron, (±)-1-[3-chloro-4-(1,1,2-trifluoro-2-trifluoro-methoxyethoxy)phenyl]-3-(2,6-difluorobenzoyl)urea], in test [1] (setting [4]), the “Percent control (%) A01” value was 59.3%, the “Percent control (%) A14” value stood at 58.7%, the “Percent control (%) B03” value is recorded as 68.9% and the “Percent control (%) B07” value stood at 70.1%. For the same compound, in test [1] (setting [4]), the “Percent control (%) B10” value is 74.6% and the “Percent control (%) B21” value is 73.9%. In test [1] (setting [5]), the “Percent control (%) A01” value was 60.5%, the “Percent control (%) A14” value came to 72.5%, the “Percent control (%) B03” value is given as 79.9% and the “Percent control (%) B07” value is reported as 88.8%. Moreover, in test [1] (setting [5]), the “Percent control (%) B10” value is 88.9% and the “Percent control (%) B21” value is on record as 84.7%.
Consider `COP(=O)(NC(C)=O)SC` (stereo not drawn) [Acephate], for which, in test [1] (setting [4]), the “Percent control (%) A01” value was found to be 46.8%, the “Percent control (%) A14” value was found to be 50.3%, the “Percent control (%) B03” value is 62.1% and the “Percent control (%) B07” value was determined as 63.9%. For the same compound, in test [1] (setting [4]), the “Percent control (%) B10” value is on record as 64.1% and the “Percent control (%) B21” value was determined as 61.6%. In test [1] (setting [5]), the “Percent control (%) A01” value amounted to 58.1%, the “Percent control (%) A14” value is 69.7%, the “Percent control (%) B03” value is 76.4% and the “Percent control (%) B07” value is reported as 80.5%. Also, in test [1] (setting [5]), the “Percent control (%) B10” value turned out to be 83.2% and the “Percent control (%) B21” value came to 80.3%.
On to `CNC(=O)c1cc(Cl)cc(C)c1NC(=O)c1cc(Br)nn1-c1ncccc1Cl` [CTPR, Chlorantraniliprole], for which, in test [1] (setting [4]), the “Percent control (%) A01” value is listed as 57.1%, the “Percent control (%) A14” value is reported as 66.8%, the “Percent control (%) B03” value is given as 75% and the “Percent control (%) B07” value worked out at 77.2%. For the same compound, in test [1] (setting [4]), the “Percent control (%) B10” value stood at 76.2% and the “Percent control (%) B21” value stood at 74.6%. In test [1] (setting [5]), the “Percent control (%) A01” value worked out at 67.6%, the “Percent control (%) A14” value was 75.2%, the “Percent control (%) B03” value is 79.9% and the “Percent control (%) B07” value is 86.8%. Moreover, in test [1] (setting [5]), the “Percent control (%) B10” value amounted to 88.9% and the “Percent control (%) B21” value was found to be 87.0%.
On to `O=[N+]([O-])NC1=NCCN1Cc1ccc(Cl)nc1` [Imidacloprid], for which, in test [2] (setting [6]), the “Percent control (%) of Okra Aphids, Nymphs + Adults, A01” value was 66.9%; the “Percent control (%) of Okra Aphids, Nymphs + Adults, B03” value was 80.7%; the “Percent control (%) of Okra Aphids, Nymphs + Adults, B07” value amounted to 82.7%; the “Percent control (%) of Okra Aphids, Nymphs + Adults, B10” value is 82.2%. Further, in test [2] (setting [6]), the “Percent control (%) of Okra Aphids, Nymphs + Adults, C03” value is recorded as 81.3% and the “Percent control (%) of Okra Aphids, Nymphs + Adults, C10” value worked out at 82.6%. In test [2] (setting [7]), the “Percent control (%) of Okra Aphids, Nymphs + Adults, A01” value was 62.7%; the “Percent control (%) of Okra Aphids, Nymphs + Adults, B03” value is on record as 74.4%; the “Percent control (%) of Okra Aphids, Nymphs + Adults, B07” value is listed as 77.2%; the “Percent control (%) of Okra Aphids, Nymphs + Adults, B10” value came out at 79.1%. Moreover, in test [2] (setting [7]), the “Percent control (%) of Okra Aphids, Nymphs + Adults, C03” value is 75.4% and the “Percent control (%) of Okra Aphids, Nymphs + Adults, C10” value worked out at 78%. In addition, the “Percent control (%) of Okra Aphids, Nymphs + Adults, A10” value in test [2] (A10 (after 1st spray), doses gm a.i./ha: OSA 25, Flonicamid 100, Acephate+Imidacloprid 520, Flonicamid+Fipronil 100+50, Imidacloprid 24.5, Acetamiprid 15) worked out at 82%. The “Percent control (%) of Okra Aphids, Nymphs + Adults, A14” value in test [2] (A14 = 14 days after 1st spray, reduced insecticide dose, gm a.i./ha: OSA 25, Flonicamid (Ulala) 75, Acephate+Imidacloprid 390, Flonicamid+Fipronil 75+37.5, Imidacloprid 18.3, Acetamiprid 11.2) was 64.3%. Moreover, in test [3] (setting [8]), the “Percent control (%) of Okra Jassids, Nymphs + Adults, A01” value is 56%; the “Percent control (%) of Okra Jassids, Nymphs + Adults, A10” value was 59.1%; the “Percent control (%) of Okra Jassids, Nymphs + Adults, B03” value worked out at 61.5%; the “Percent control (%) of Okra Jassids, Nymphs + Adults, B07” value is listed as 62.5%. Besides, in test [3] (setting [8]), the “Percent control (%) of Okra Jassids, Nymphs + Adults, B10” value is 63.5%; the “Percent control (%) of Okra Jassids, Nymphs + Adults, B14” value was found to be 62.4%; the “Percent control (%) of Okra Jassids, Nymphs + Adults, C03” value is on record as 64.6%; the “Percent control (%) of Okra Jassids, Nymphs + Adults, C10” value came out at 66.1%. In test [3] (setting [6]), the “Percent control (%) of Okra Jassids, Nymphs + Adults, A01” value was 59.9%; the “Percent control (%) of Okra Jassids, Nymphs + Adults, A10” value is on record as 64.6%; the “Percent control (%) of Okra Jassids, Nymphs + Adults, B03” value worked out at 68.5%; the “Percent control (%) of Okra Jassids, Nymphs + Adults, B07” value came to 71.7%. In test [3] (setting [6]), the “Percent control (%) of Okra Jassids, Nymphs + Adults, B10” value is 70.5%; the “Percent control (%) of Okra Jassids, Nymphs + Adults, B14” value is 66.2%; the “Percent control (%) of Okra Jassids, Nymphs + Adults, C03” value is listed as 68.0%; the “Percent control (%) of Okra Jassids, Nymphs + Adults, C10” value worked out at 73.0%.
